Assay [1] relates to Glomerella lagenarium (Colletotrichum lagenarium). Put plainly: Fungicidal activity against Glomerella lagenarium (Colletotrichum lagenarium) liquid culture / cucumber / preventative (anthracnose). It counts as cell-based. The following applies: Colletotrichum orbiculare; 20 ppm in the applied formulation; liquid culture (PDB), inhibition of growth measured photometrically 3 to 4 days after application; compared to untreated; read-out: disease control. The protocol:
Mycelia fragments or conidia suspensions of a fungus prepared either freshly from liquid cultures of the fungus or from cryogenic storage, are directly mixed into nutrient broth. DMSO solutions of the test compound (max. 10 mg/mL) are diluted with 0.025% Tween20 by a factor of 50 and 10 μL of this solution is pipetted into a microtiter plate (96-well format). The nutrient broth containing the fungal spores/mycelia fragments is then added to give an end concentration of the tested compound. The test plates are incubated in the dark at 24° C. and 96% relative humidity. The inhibition of fungal growth is determined photometrically after 2 to 7 days, depending on the pathosystem, and percent antifungal activity relative to the untreated check is calculated. Conidia of the fungus from cryogenic storage are directly mixed into nutrient broth (PDB—potato dextrose broth). After placing a (DMSO) solution of test compound into a microtiter plate (96-well format), the nutrient broth containing the fungal spores is added. The test plates are incubated at 24° C. and the inhibition of growth is measured photometrically 3 to 4 days after application. The following compounds at 20 ppm in the applied formulation give at least 80% disease control in this test when compared to untreated control under the same conditions, which show extensive disease development.

The test system of assay [2] is Puccinia recondita f. Sp. Tritici. As to the kind of experiment: Fungicidal activity against Puccinia recondita f. sp. tritici / wheat / leaf disc preventative (brown rust). In kind it is in vivo. The following applies: foliar, 200 ppm in the applied formulation, wheat leaf segments cv. Kanzler, preventative (inoculated 1 day after application), compared to untreated, read-out: disease control. The protocol: Leaf disks or leaf segments of various plant species are cut from plants grown in a greenhouse. The cut leaf disks or segments are placed in multiwell plates (24-well format) onto water agar. The leaf disks are sprayed with a test solution before (preventative) or after (curative) inoculation. Compounds to be tested are prepared as DMSO solutions (max. 10 mg/mL) which are diluted to the appropriate concentration with 0.025% Tween20 just before spraying. The inoculated leaf disks or segments are incubated under defined conditions (temperature, relative humidity, light, etc.) according to the respective test system. A single evaluation of disease level is carried out 3 to 14 days after inoculation, depending on the pathosystem. Percent disease control relative to the untreated check leaf disks or segments is then calculated. Wheat leaf segments cv. Kanzler were placed on agar in multiwell plates (24-well format) and sprayed with the formulated test compound diluted in water. The leaf disks were inoculated with a spore suspension of the fungus 1 day after application. The inoculated leaf segments were incubated at 19° C. and 75% relative humidity (rh) under a light regime of 12 hours light/12 hours darkness in a climate cabinet and the activity of a compound was assessed as percent disease control compared to untreated when an appropriate level of disease damage appears in untreated check leaf segments (7 to 9 days after application). The following compounds at 200 ppm in the applied formulation give at least 80% disease control in this test when compared to untreated control leaf disks under the same conditions, which show extensive disease development.

`CC1(C)CC(=O)N(Cc2ccc(-c3noc(C(F)(F)F)n3)s2)O1` [Compound 1.3, 5,5-dimethyl-2-[[5-[5-(trifluoromethyl)-1,2,4-oxadiazol-3-yl]-2-thienyl]methyl] isoxazolidin-3-one]: in assay [1], the inhibition of growth at 20 ppm is at least 80%. Besides, the pest or weed control at 200 ppm in assay [2] is at least 80%.

Consider `Cc1cnn(Cc2ccc(-c3noc(C(F)(F)F)n3)s2)c1` [Compound 1.5, 3-[5-[(4-methylpyrazol-1-yl)methyl]-2-thienyl]-5-(trifluoromethyl)-1,2,4-oxadiazole], for which the inhibition of growth at 20 ppm in assay [1] is at least 80%. In addition, the pest or weed control at 200 ppm in assay [2] is at least 80%.

Take `FC(F)(F)c1nc(-c2ccc(Cn3cccn3)s2)no1` [Compound 1.7, 3-[5-(pyrazol-1-ylmethyl)-2-thienyl]-5-(trifluoromethyl)-1,2,4-oxadiazole]: the inhibition of growth at 20 ppm in assay [1] was at least 80%. Further, the pest or weed control at 200 ppm in assay [2] is at least 80%.

As to `FC(F)(F)c1nc(-c2ccc(Cn3nnnc3-c3ccccc3Br)s2)no1` [Compound 1.10, 3-[5-[[5-(2-bromophenyl)tetrazol-1-yl]methyl]-2-thienyl]-5-(trifluoromethyl)-1,2,4-oxadiazole], the inhibition of growth at 20 ppm in assay [1] was at least 80%. In addition, the pest or weed control at 200 ppm in assay [2] was at least 80%.

On to `Fc1cnn(Cc2ccc(-c3noc(C(F)(F)F)n3)s2)c1` [Compound 1.12, 3-[5-[(4-fluoropyrazol-1-yl)methyl]-2-thienyl]-5-(trifluoromethyl)-1,2,4-oxadiazole], for which the inhibition of growth at 20 ppm in assay [1] is at least 80%. The pest or weed control at 200 ppm in assay [2] was at least 80%.

Take `FC(F)(F)c1nc(-c2ccc(CN3CCCC3)s2)no1` [Compound 1.15, 3-[5-(pyrrolidin-1-ylmethyl)-2-thienyl]-5-(trifluoromethyl)-1,2,4-oxadiazole]: the inhibition of growth at 20 ppm in assay [1] is at least 80%.

For `FC(F)(F)c1nc(-c2ccc(CN3CCOCC3)s2)no1` [Compound 1.18, 4-[[5-[5-(trifluoromethyl)-1,2,4-oxadiazol-3-yl]-2-thienyl]methyl]morpholine], the inhibition of growth at 20 ppm in assay [1] is at least 80%. Further, the pest or weed control at 200 ppm in assay [2] was at least 80%.

Regarding `FC(F)(F)c1nc(-c2ccc(CN3CCC3)s2)no1` [Compound 1.20, 3-[5-(azetidin-1-ylmethyl)-2-thienyl]-5-(trifluoromethyl)-1,2,4-oxadiazole], the inhibition of growth at 20 ppm in assay [1] was at least 80%.

In the case of `Cc1cccc(=O)n1Cc1cc(-c2noc(C(F)(F)F)n2)cs1` [Compound 1.27, 6-methyl-1-[[4-[5-(trifluoromethyl)-1,2,4-oxadiazol-3-yl]-2-thienyl]methyl]pyridin-2-one], the inhibition of growth at 20 ppm in assay [1] was at least 80%.

Consider `CC1(C)CC(=O)N(Cc2cc(-c3noc(C(F)(F)F)n3)cs2)O1` [Compound 1.28, 5,5-dimethyl-2-[[4-[5-(trifluoromethyl)-1,2,4-oxadiazol-3-yl]-2-thienyl]methyl] isoxazolidin-3-one], for which the inhibition of growth at 20 ppm in assay [1] was at least 80%.

As to `O=S1(=O)CCCN1Cc1cc(-c2noc(C(F)(F)F)n2)cs1` [Compound 1.29, 2-[[4-[5-(trifluoromethyl)-1,2,4-oxadiazol-3-yl]-2-thienyl]methyl]-1,2-thiazolidine 1,1-dioxide], the inhibition of growth at 20 ppm in assay [1] is at least 80%.

For the molecule `O=C1CCCCN1Cc1cc(-c2noc(C(F)(F)F)n2)cs1` [Compound 1.31, 1-[[4-[5-(trifluoromethyl)-1,2,4-oxadiazol-3-yl]-2-thienyl]methyl]piperidin-2-one], in assay [1], the inhibition of growth at 20 ppm was at least 80%.

Take `CC(c1ccc(-c2noc(C(F)(F)F)n2)s1)n1cc(C(=O)NC2CCCCC2)cn1` (stereo not shown) [Compound 1.71, N-cyclohexyl-1-[1-[5-[5-(trifluoromethyl)-1,2,4-oxadiazol-3-yl]-2-thienyl]ethyl]pyrazole-4-carboxamide]: the inhibition of growth at 20 ppm in assay [1] is at least 80%. Also, the pest or weed control at 200 ppm in assay [2] was at least 80%.

Regarding `O=C(Nc1ccccc1)c1cnn(Cc2ccc(-c3noc(C(F)(F)F)n3)s2)c1` [Compound 1.115, N-phenyl-1-[[5-[5-(trifluoromethyl)-1,2,4-oxadiazol-3-yl]-2-thienyl]methyl]pyrazole-4-carboxamide], the inhibition of growth at 20 ppm in assay [1] was at least 80%. Besides, the pest or weed control at 200 ppm in assay [2] was at least 80%.

Take `O=C(NC1CCCCC1)c1ncn(Cc2ccc(-c3noc(C(F)(F)F)n3)s2)n1` [Compound 1.149, N-cyclohexyl-1-[[5-[5-(trifluoromethyl)-1,2,4-oxadiazol-3-yl]-2-thienyl]methyl]-1,2,4-triazole-3-carboxamide]: in assay [1], the inhibition of growth at 20 ppm is at least 80%. Also, the pest or weed control at 200 ppm in assay [2] was at least 80%.

As for `CCC(C)NC(=O)c1ccnn1Cc1ccc(-c2noc(C(F)(F)F)n2)s1` (stereo not shown) [Compound 1.155, N-sec-butyl-2-[[5-[5-(trifluoromethyl)-1,2,4-oxadiazol-3-yl]-2-thienyl]methyl]pyrazole-3-carboxamide], the inhibition of growth at 20 ppm in assay [1] is at least 80%. Besides, the pest or weed control at 200 ppm in assay [2] was at least 80%.

For the molecule `CC(C)(C)CNC(=O)c1ccnn1Cc1ccc(-c2noc(C(F)(F)F)n2)s1` [Compound 1.156, N-(2,2-dimethylpropyl)-2-[[5-[5-(trifluoromethyl)-1,2,4-oxadiazol-3-yl]-2-thienyl]methyl]pyrazole-3-carboxamide], the inhibition of growth at 20 ppm in assay [1] is at least 80%. Besides, the pest or weed control at 200 ppm in assay [2] was at least 80%.

For the molecule `CC(C)NC(=O)c1ccnn1Cc1ccc(-c2noc(C(F)(F)F)n2)s1` [Compound 1.157, N-isopropyl-2-[[5-[5-(trifluoromethyl)-1,2,4-oxadiazol-3-yl]-2-thienyl]methyl]pyrazole-3-carboxamide], the inhibition of growth at 20 ppm in assay [1] is at least 80%. For the same molecule, in assay [2], the pest or weed control at 200 ppm is at least 80%.

Consider `O=C(NC1CCCCC1)c1ccnn1Cc1ccc(-c2noc(C(F)(F)F)n2)s1` [Compound 1.159, N-cyclohexyl-2-[[5-[5-(trifluoromethyl)-1,2,4-oxadiazol-3-yl]-2-thienyl]methyl]pyrazole-3-carboxamide], for which the inhibition of growth at 20 ppm in assay [1] was at least 80%. In addition, the pest or weed control at 200 ppm in assay [2] was at least 80%.

For the molecule `O=C(Nc1ccccc1)c1ccnn1Cc1ccc(-c2noc(C(F)(F)F)n2)s1` [Compound 1.162, N-phenyl-2-[[5-[5-(trifluoromethyl)-1,2,4-oxadiazol-3-yl]-2-thienyl]methyl]pyrazole-3-carboxamide], the inhibition of growth at 20 ppm in assay [1] is at least 80%. Besides, the pest or weed control at 200 ppm in assay [2] was at least 80%.

For `O=C(NCc1ccccc1)c1ccnn1Cc1ccc(-c2noc(C(F)(F)F)n2)s1` [Compound 1.163, N-benzyl-2-[[5-[5-(trifluoromethyl)-1,2,4-oxadiazol-3-yl]-2-thienyl]methyl]pyrazole-3-carboxamide], in assay [1], the inhibition of growth at 20 ppm is at least 80%. For the same molecule, the pest or weed control at 200 ppm in assay [2] is at least 80%.

In the case of `O=C(NC1CCCC1)c1ccnn1Cc1ccc(-c2noc(C(F)(F)F)n2)s1` [Compound 1.165, N-cyclopentyl-2-[[5-[5-(trifluoromethyl)-1,2,4-oxadiazol-3-yl]-2-thienyl]methyl]pyrazole-3-carboxamide], in assay [1], the inhibition of growth at 20 ppm is at least 80%. For the same molecule, the pest or weed control at 200 ppm in assay [2] is at least 80%.

With `CC(C)(C)NC(=O)c1ccnn1Cc1ccc(-c2noc(C(F)(F)F)n2)s1` [Compound 1.167, N-tert-butyl-2-[[5-[5-(trifluoromethyl)-1,2,4-oxadiazol-3-yl]-2-thienyl]methyl]pyrazole-3-carboxamide], the inhibition of growth at 20 ppm in assay [1] was at least 80%. In addition, the pest or weed control at 200 ppm in assay [2] is at least 80%.

The record behind these values is patent US11358957B2, “Microbiocidal oxadiazole derivatives” (SYNGENTA PARTICIPATIONS AG, priority 2017, dated 2022).
